Experimental data: ChEMBL document CHEMBL1201862, “PubChem BioAssay data set” (2004)
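Cells were grown in 96-well plates and exposed to each compound for 48 hours at five concentrations; endpoints were interpolated linearly between bracketing concentrations, or set to the highest concentration if not reached. GI50 marks 50% less growth.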 Calls of active or inactive are those of the source. Cut-off read from the data, not from the text of the source: active = GI50 up to about 1.1 µM and inactive = higher.

Tests used:
Assay in all cases: growth of human tumour cells (NCI), 48 h
[1] = tested on: 786-0
[2] = tested on: BT-549
[3] = tested on: CCRF-CEM
[4] = tested on: COLO 205
[5] = tested on: HCC 2998
[6] = tested on: HCT-116
[7] = tested on: HOP-62
[8] = tested on: HOP-92
[9] = tested on: HT-29
[10] = tested on: Hs-578T
[11] = tested on: K562
[12] = tested on: KM12
[13] = tested on: LOX IMVI
[14] = tested on: M14
[15] = tested on: MDA-MB-231
[16] = tested on: MDA-N
[17] = tested on: MOLT-4
[18] = tested on: NCI-H226
[19] = tested on: NCI-H23
[20] = tested on: NCI-H460
[21] = tested on: NCI-H522
[22] = tested on: NCI/ADR-RES
[23] = tested on: OVCAR-3
[24] = tested on: OVCAR-4
[25] = tested on: OVCAR-8
[26] = tested on: PC-3
[27] = tested on: RXF 393
[28] = tested on: SF-268
[29] = tested on: SF-295
[30] = tested on: SK-MEL-28
[31] = tested on: SK-OV-3
[32] = tested on: SN12C
[33] = tested on: SNB-19
[34] = tested on: SNB-75
[35] = tested on: SW-620
[36] = tested on: TK-10
[37] = tested on: U-251
[38] = tested on: UACC-62
[39] = tested on: A498
[40] = tested on: A549
[41] = tested on: ACHN
[42] = tested on: CAKI-1
[43] = tested on: DU-145
[44] = tested on: EKVX
[45] = tested on: HCT-15
[46] = tested on: HL-60
[47] = tested on: IGROV-1
[48] = tested on: MCF7
[49] = tested on: MDA-MB-435
[50] = tested on: Malme-3M
[51] = tested on: OVCAR-5
[52] = tested on: RPMI-8226
[53] = tested on: SF-539
[54] = tested on: SK-MEL-5
[55] = tested on: SR
[56] = tested on: T47D
[57] = tested on: UACC-257
[58] = tested on: UO-31
[59] = tested on: SK-MEL-2

## C/C(=N\c1ccc(Cl)c(Cl)c1)c1ccncc1
[1]
  GI50: > 100 µM (inactive)
[2]
  GI50: > 100 µM (inactive)
[3]
  GI50: > 100 µM (inactive)
[4]
  GI50: > 100 µM (inactive)
[5]
  GI50: > 10 µM (inactive)
[6]
  GI50: > 100 µM (inactive)
[7]
  GI50: > 100 µM (inactive)
[8]
  GI50: > 100 µM (inactive)
[9]
  GI50: > 100 µM (inactive)
[10]
  GI50: > 100 µM (inactive)
[11]
  GI50: > 100 µM (inactive)
[12]
  GI50: > 100 µM (inactive)
[13]
  GI50: > 100 µM (inactive)
[14]
  GI50: > 100 µM (inactive)
[15]
  GI50: > 100 µM (inactive)
[16]
  GI50: > 100 µM (inactive)
[17]
  GI50: > 100 µM (inactive)
[18]
  GI50: > 100 µM (inactive)
[19]
  GI50: > 100 µM (inactive)
[20]
  GI50: > 100 µM (inactive)
[21]
  GI50: > 100 µM (inactive)
[22]
  GI50: > 100 µM (inactive)
[23]
  GI50: > 100 µM (inactive)
[24]
  GI50: > 100 µM (inactive)
[25]
  GI50: > 100 µM (inactive)
[26]
  GI50: > 100 µM (inactive)
[27]
  GI50: > 100 µM (inactive)
[28]
  GI50: > 100 µM (inactive)
[29]
  GI50: > 100 µM (inactive)
[30]
  GI50: > 100 µM (inactive)
[31]
  GI50: > 100 µM (inactive)
[32]
  GI50: > 100 µM (inactive)
[33]
  GI50: > 100 µM (inactive)
[34]
  GI50: > 100 µM (inactive)
[35]
  GI50: > 100 µM (inactive)
[36]
  GI50: > 100 µM (inactive)
[37]
  GI50: > 100 µM (inactive)
[38]
  GI50: > 100 µM (inactive)

## NC1=C(N2CCOCC2)C(=O)NC2=N/C(=C\c3ccccc3)C(=O)N21
[1]
  GI50: > 100 µM (inactive)
[39]
  GI50: 64.3 µM (inactive)
[40]
  GI50: > 100 µM (inactive)
[41]
  GI50: > 100 µM (inactive)
[42]
  GI50: > 100 µM (inactive)
[3]
  GI50: 79.6 µM (inactive)
[4]
  GI50: > 100 µM (inactive)
[43]
  GI50: > 100 µM (inactive)
[44]
  GI50: > 100 µM (inactive)
[5]
  GI50: > 100 µM (inactive)
[6]
  GI50: > 100 µM (inactive)
[45]
  GI50: 84.3 µM
[46]
  GI50: 17.9 µM (inactive)
[8]
  GI50: > 100 µM (inactive)
[9]
  GI50: > 100 µM (inactive)
[10]
  GI50: > 100 µM (inactive)
[47]
  GI50: > 100 µM (inactive)
[11]
  GI50: 26.1 µM (inactive)
[12]
  GI50: > 100 µM (inactive)
[13]
  GI50: > 100 µM (inactive)
[14]
  GI50: > 100 µM (inactive)
[48]
  GI50: > 100 µM (inactive)
[15]
  GI50: > 100 µM (inactive)
[49]
  GI50: > 100 µM (inactive)
[16]
  GI50: > 100 µM (inactive)
[17]
  GI50: 35.8 µM (inactive)
[50]
  GI50: > 100 µM (inactive)
[18]
  GI50: 97.9 µM (inactive)
[19]
  GI50: > 100 µM (inactive)
[20]
  GI50: > 100 µM (inactive)
[21]
  GI50: > 100 µM (inactive)
[22]
  GI50: > 100 µM (inactive)
[24]
  GI50: > 100 µM (inactive)
[51]
  GI50: > 100 µM (inactive)
[25]
  GI50: > 100 µM (inactive)
[52]
  GI50: 47.4 µM (inactive)
[27]
  GI50: > 100 µM (inactive)
[28]
  GI50: > 100 µM (inactive)
[29]
  GI50: 3.87 µM (inactive)
[53]
  GI50: 76.7 µM (inactive)
[30]
  GI50: > 100 µM (inactive)
[54]
  GI50: > 100 µM (inactive)
[31]
  GI50: > 100 µM (inactive)
[32]
  GI50: > 100 µM (inactive)
[33]
  GI50: > 100 µM (inactive)
[34]
  GI50: > 100 µM (inactive)
[55]
  GI50: 49.2 µM (inactive)
[35]
  GI50: > 100 µM (inactive)
[56]
  GI50: 81.3 µM (inactive)
[36]
  GI50: > 100 µM (inactive)
[37]
  GI50: > 100 µM (inactive)
[57]
  GI50: > 100 µM (inactive)
[58]
  GI50: > 100 µM (inactive)

## Oc1c([Si](c2ccccc2)(c2ccccc2)c2ccccc2)cc2ccccc2c1-c1c(O)c([Si](c2ccccc2)(c2ccccc2)c2ccccc2)cc2ccccc12
[1]
  GI50: > 100 µM (inactive)
[39]
  GI50: > 100 µM (inactive)
[40]
  GI50: > 100 µM (inactive)
[41]
  GI50: > 100 µM (inactive)
[42]
  GI50: > 100 µM (inactive)
[3]
  GI50: > 100 µM (inactive)
[4]
  GI50: > 100 µM (inactive)
[43]
  GI50: > 100 µM (inactive)
[44]
  GI50: > 100 µM (inactive)
[5]
  GI50: > 100 µM (inactive)
[45]
  GI50: > 100 µM
[46]
  GI50: > 100 µM (inactive)
[7]
  GI50: 98.9 µM (inactive)
[8]
  GI50: > 100 µM (inactive)
[9]
  GI50: > 100 µM (inactive)
[10]
  GI50: > 100 µM (inactive)
[47]
  GI50: > 100 µM (inactive)
[11]
  GI50: 34.1 µM (inactive)
[12]
  GI50: > 100 µM (inactive)
[13]
  GI50: > 100 µM (inactive)
[14]
  GI50: > 100 µM (inactive)
[48]
  GI50: > 100 µM (inactive)
[15]
  GI50: > 100 µM (inactive)
[49]
  GI50: > 100 µM (inactive)
[16]
  GI50: > 100 µM (inactive)
[17]
  GI50: 42.2 µM (inactive)
[50]
  GI50: > 100 µM (inactive)
[19]
  GI50: > 100 µM (inactive)
[20]
  GI50: > 100 µM (inactive)
[21]
  GI50: > 100 µM (inactive)
[22]
  GI50: > 100 µM (inactive)
[24]
  GI50: > 100 µM (inactive)
[51]
  GI50: > 100 µM (inactive)
[25]
  GI50: > 100 µM (inactive)
[26]
  GI50: > 100 µM (inactive)
[52]
  GI50: > 100 µM (inactive)
[27]
  GI50: > 100 µM (inactive)
[28]
  GI50: > 100 µM (inactive)
[29]
  GI50: > 100 µM (inactive)
[53]
  GI50: > 100 µM (inactive)
[30]
  GI50: > 100 µM (inactive)
[59]
  GI50: > 100 µM (inactive)
[54]
  GI50: > 100 µM (inactive)
[31]
  GI50: > 100 µM (inactive)
[33]
  GI50: > 100 µM (inactive)
[34]
  GI50: > 100 µM (inactive)
[55]
  GI50: > 100 µM (inactive)
[35]
  GI50: > 100 µM (inactive)
[56]
  GI50: > 100 µM (inactive)
[36]
  GI50: > 100 µM (inactive)
[37]
  GI50: > 100 µM (inactive)
[57]
  GI50: > 100 µM (inactive)
[38]
  GI50: > 100 µM (inactive)
[58]
  GI50: > 100 µM (inactive)
